{"source": "paper PMC9005681", "about": "“Use of AD Informer Set compounds to explore validity of novel targets in Alzheimer's disease pathology” (Alzheimer's & Dementia : Translational Research & Clinical …, 2022)", "assay_in_all_cases": "PDSP GPCR panel primary binding assays at 10 μM", "key": {"[1]": {"target": "T1, cloned human or rodent CNS receptors, channels, and transporters (PDSP panel) (Homo sapiens, UniProt P08173)", "T1 construct": "expressed in transfected cells", "T1 sequence (P08173 1-479)": "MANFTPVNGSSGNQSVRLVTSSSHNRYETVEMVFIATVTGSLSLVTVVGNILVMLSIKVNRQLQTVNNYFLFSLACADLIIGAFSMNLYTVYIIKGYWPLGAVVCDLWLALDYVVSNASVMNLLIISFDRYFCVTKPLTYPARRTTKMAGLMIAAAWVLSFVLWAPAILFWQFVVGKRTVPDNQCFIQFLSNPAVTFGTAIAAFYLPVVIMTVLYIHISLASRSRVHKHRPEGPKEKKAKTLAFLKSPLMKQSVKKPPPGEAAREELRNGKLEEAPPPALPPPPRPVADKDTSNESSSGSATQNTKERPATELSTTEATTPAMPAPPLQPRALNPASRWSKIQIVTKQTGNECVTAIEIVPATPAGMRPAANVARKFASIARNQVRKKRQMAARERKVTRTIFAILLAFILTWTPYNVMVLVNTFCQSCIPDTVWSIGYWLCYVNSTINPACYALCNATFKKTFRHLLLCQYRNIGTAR", "details": "M4, primary assay", "summary_of_the_method": "(§1)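 PDSP panel of 46–47 cloned human or rodent CNS receptors, channels and transporters; radioligand displacement by compound at 10 μM, in quadruplicate. Where average displacement exceeded 50%, secondary binding followed as 11-point dose-response in triplicate (none for H3, PBR or GABAA).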"}, "[2]": {"target": "T2, cloned human or rodent CNS receptors, channels, and transporters (PDSP panel) (Homo sapiens, UniProt P08908)", "T2 construct": "expressed in transfected cells", "T2 sequence (P08908 1-422)": "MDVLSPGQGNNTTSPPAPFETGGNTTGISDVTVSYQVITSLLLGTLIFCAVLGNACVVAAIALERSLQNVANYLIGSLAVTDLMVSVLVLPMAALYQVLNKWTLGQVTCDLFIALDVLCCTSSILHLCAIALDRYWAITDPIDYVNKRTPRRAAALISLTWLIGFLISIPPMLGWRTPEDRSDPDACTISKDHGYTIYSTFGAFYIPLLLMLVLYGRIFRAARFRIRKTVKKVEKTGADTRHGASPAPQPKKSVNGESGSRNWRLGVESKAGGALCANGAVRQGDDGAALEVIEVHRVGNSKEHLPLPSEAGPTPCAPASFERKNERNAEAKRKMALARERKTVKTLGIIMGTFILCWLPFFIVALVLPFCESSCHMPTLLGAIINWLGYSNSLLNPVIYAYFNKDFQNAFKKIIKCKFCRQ", "details": "5-HT1A, primary assay", "summary_of_the_method": "as §1"}, "[3]": {"target": "T3, cloned human or rodent CNS receptors, channels, and transporters (PDSP panel) (Homo sapiens, UniProt P20309)", "T3 construct": "expressed in transfected cells", "T3 sequence (P20309 whole entry)": "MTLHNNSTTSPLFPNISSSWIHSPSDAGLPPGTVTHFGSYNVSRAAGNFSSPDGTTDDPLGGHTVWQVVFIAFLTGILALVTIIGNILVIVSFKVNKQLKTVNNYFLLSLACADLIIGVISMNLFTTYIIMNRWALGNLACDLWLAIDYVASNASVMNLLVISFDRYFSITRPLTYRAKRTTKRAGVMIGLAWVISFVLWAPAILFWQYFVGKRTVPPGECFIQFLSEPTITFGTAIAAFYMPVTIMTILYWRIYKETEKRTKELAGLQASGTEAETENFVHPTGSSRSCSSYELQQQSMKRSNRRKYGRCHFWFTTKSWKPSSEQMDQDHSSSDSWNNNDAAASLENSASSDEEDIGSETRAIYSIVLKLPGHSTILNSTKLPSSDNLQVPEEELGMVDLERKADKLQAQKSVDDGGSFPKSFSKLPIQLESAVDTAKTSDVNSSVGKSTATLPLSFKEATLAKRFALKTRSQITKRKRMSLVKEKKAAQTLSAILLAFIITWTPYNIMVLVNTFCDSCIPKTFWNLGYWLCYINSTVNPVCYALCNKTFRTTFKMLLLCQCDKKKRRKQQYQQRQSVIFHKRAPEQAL", "details": "M3, primary assay", "summary_of_the_method": "as §1"}, "[4]": {"target": "T4, cloned human or rodent CNS receptors, channels, and transporters (PDSP panel) (Homo sapiens, UniProt P21917)", "T4 construct": "expressed in transfected cells", "T4 sequence (P21917 1-419)": "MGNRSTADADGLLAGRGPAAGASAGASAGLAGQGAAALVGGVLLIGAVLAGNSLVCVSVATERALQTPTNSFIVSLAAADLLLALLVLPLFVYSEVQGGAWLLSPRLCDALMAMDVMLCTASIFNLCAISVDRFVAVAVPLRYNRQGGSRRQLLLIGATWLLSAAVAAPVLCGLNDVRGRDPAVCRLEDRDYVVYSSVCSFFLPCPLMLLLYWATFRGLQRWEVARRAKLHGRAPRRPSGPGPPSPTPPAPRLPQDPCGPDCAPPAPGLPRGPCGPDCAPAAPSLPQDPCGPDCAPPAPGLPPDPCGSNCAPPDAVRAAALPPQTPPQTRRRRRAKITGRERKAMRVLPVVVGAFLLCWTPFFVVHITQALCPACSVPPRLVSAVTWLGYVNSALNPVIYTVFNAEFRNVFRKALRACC", "details": "D4, primary assay", "summary_of_the_method": "as §1"}, "[5]": {"target": "T5, cloned human or rodent CNS receptors, channels, and transporters (PDSP panel) (Homo sapiens, UniProt P50406)", "T5 construct": "expressed in transfected cells", "T5 sequence (P50406 whole entry)": "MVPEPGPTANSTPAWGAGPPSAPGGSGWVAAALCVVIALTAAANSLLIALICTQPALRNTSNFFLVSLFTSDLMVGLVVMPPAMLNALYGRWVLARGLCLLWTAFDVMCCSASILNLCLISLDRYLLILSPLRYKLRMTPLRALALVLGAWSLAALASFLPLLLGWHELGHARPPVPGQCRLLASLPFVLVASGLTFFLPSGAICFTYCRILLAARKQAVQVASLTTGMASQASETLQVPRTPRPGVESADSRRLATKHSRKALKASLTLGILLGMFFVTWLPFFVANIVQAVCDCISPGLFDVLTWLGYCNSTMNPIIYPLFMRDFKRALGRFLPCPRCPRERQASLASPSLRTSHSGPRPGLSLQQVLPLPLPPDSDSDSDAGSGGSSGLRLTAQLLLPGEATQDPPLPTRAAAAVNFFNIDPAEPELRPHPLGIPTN", "details": "5-HT6, primary assay", "summary_of_the_method": "as §1"}, "[6]": {"tested_on": "cloned human or rodent CNS receptors, channels, and transporters (PDSP panel)", "details": "primary assay; for Mean %: mean inhibition; for Inhibition 1: replicate 1; for Inhibition 2: replicate 2; for Inhibition 3: replicate 3; for Inhibition 4: replicate 4", "summary_of_the_method": "as §1"}}, "note": "“And” between values parts separate entries of the source, which are not always exact repeats. Equal values may be shown once."}
{"substance": "MDL 28170 [UNC10302675A]", "values": [{"measurement": "Mean %", "setting": "[1]; mean inhibition", "result": 7.01, "unit": "%"}, {"measurement": "Inhibition 1", "setting": "[1]; replicate 1", "result": 5.86, "unit": "%"}, {"measurement": "Inhibition 2", "setting": "[1]; replicate 2", "result": -14.36, "unit": "%"}, {"measurement": "Inhibition 3", "setting": "[1]; replicate 3", "result": 13.67, "unit": "%"}, {"measurement": "Inhibition 4", "setting": "[1]; replicate 4", "result": 22.85, "unit": "%"}, {"measurement": "Mean %", "setting": "[2]; mean inhibition", "result": 2.42, "unit": "%"}, {"measurement": "Inhibition 1", "setting": "[2]; replicate 1", "result": 14.05, "unit": "%"}, {"measurement": "Inhibition 2", "setting": "[2]; replicate 2", "result": 0.78, "unit": "%"}, {"measurement": "Inhibition 3", "setting": "[2]; replicate 3", "result": -1.81, "unit": "%"}, {"measurement": "Inhibition 4", "setting": "[2]; replicate 4", "result": -3.36, "unit": "%"}, {"measurement": "Mean %", "setting": "[3]; mean inhibition", "result": 3.62, "unit": "%"}, {"measurement": "Inhibition 1", "setting": "[3]; replicate 1", "result": 10.69, "unit": "%"}, {"measurement": "Inhibition 2", "setting": "[3]; replicate 2", "result": 6.89, "unit": "%"}, {"measurement": "Inhibition 3", "setting": "[3]; replicate 3", "result": 8.89, "unit": "%"}, {"measurement": "Inhibition 4", "setting": "[3]; replicate 4", "result": -11.99, "unit": "%"}, {"measurement": "Mean %", "setting": "[4]; mean inhibition", "result": 0.31, "unit": "%"}, {"measurement": "Inhibition 1", "setting": "[4]; replicate 1", "result": 10.14, "unit": "%"}, {"measurement": "Inhibition 2", "setting": "[4]; replicate 2", "result": -3.06, "unit": "%"}, {"measurement": "Inhibition 3", "setting": "[4]; replicate 3", "result": -7.08, "unit": "%"}, {"measurement": "Inhibition 4", "setting": "[4]; replicate 4", "result": 1.24, "unit": "%"}, {"measurement": "Mean %", "setting": "[5]; mean inhibition", "result": -4.53, "unit": "%"}, {"measurement": "Inhibition 1", "setting": "[5]; replicate 1", "result": 18.94, "unit": "%"}, {"measurement": "Inhibition 2", "setting": "[5]; replicate 2", "result": -17.59, "unit": "%"}, {"measurement": "Inhibition 3", "setting": "[5]; replicate 3", "result": -16, "unit": "%"}, {"measurement": "Inhibition 4", "setting": "[5]; replicate 4", "result": -3.45, "unit": "%"}, {"measurement": "Mean %", "setting": "[6]; Alpha1A", "result": 5.14, "unit": "%"}, {"measurement": "Inhibition 1", "setting": "[6]; Alpha1A", "result": 14.68, "unit": "%"}, {"measurement": "Inhibition 2", "setting": "[6]; Alpha1A", "result": -1.03, "unit": "%"}, {"measurement": "Inhibition 3", "setting": "[6]; Alpha1A", "result": -8.14, "unit": "%"}, {"measurement": "Inhibition 4", "setting": "[6]; Alpha1A", "result": 15.06, "unit": "%"}, {"measurement": "Mean %", "setting": "[6]; Alpha2A", "result": -0.83, "unit": "%"}, {"measurement": "Inhibition 1", "setting": "[6]; Alpha2A", "result": 3.33, "unit": "%"}, {"measurement": "Inhibition 2", "setting": "[6]; Alpha2A", "result": -2.81, "unit": "%"}, {"measurement": "Inhibition 3", "setting": "[6]; Alpha2A", "result": -6.74, "unit": "%"}, {"measurement": "Inhibition 4", "setting": "[6]; Alpha2A", "result": 2.9, "unit": "%"}, {"measurement": "Mean %", "setting": "[6]; Alpha2C", "result": -3.61, "unit": "%"}, {"measurement": "Inhibition 1", "setting": "[6]; Alpha2C", "result": -3.7, "unit": "%"}, {"measurement": "Inhibition 2", "setting": "[6]; Alpha2C", "result": -0.8, "unit": "%"}, {"measurement": "Inhibition 3", "setting": "[6]; Alpha2C", "result": -1.62, "unit": "%"}, {"measurement": "Inhibition 4", "setting": "[6]; Alpha2C", "result": -8.31, "unit": "%"}, {"measurement": "Mean %", "setting": "[6]; BZP Rat Brain Site", "result": 7.23, "unit": "%"}, {"measurement": "Inhibition 1", "setting": "[6]; BZP Rat Brain Site", "result": 18.74, "unit": "%"}, {"measurement": "Inhibition 2", "setting": "[6]; BZP Rat Brain Site", "result": 4.91, "unit": "%"}, {"measurement": "Inhibition 3", "setting": "[6]; BZP Rat Brain Site", "result": -1.16, "unit": "%"}, {"measurement": "Inhibition 4", "setting": "[6]; BZP Rat Brain Site", "result": 6.42, "unit": "%"}, {"measurement": "Mean %", "setting": "[6]; DOR", "result": -10.37, "unit": "%"}, {"measurement": "Inhibition 1", "setting": "[6]; DOR", "result": -5.94, "unit": "%"}, {"measurement": "Inhibition 2", "setting": "[6]; DOR", "result": -12.45, "unit": "%"}, {"measurement": "Inhibition 3", "setting": "[6]; DOR", "result": -15.16, "unit": "%"}, {"measurement": "Inhibition 4", "setting": "[6]; DOR", "result": -7.93, "unit": "%"}, {"measurement": "Inhibition 1", "setting": "[6]; GABAA", "result": "16.54% and -28.18%"}, {"measurement": "Inhibition 2", "setting": "[6]; GABAA", "result": "2.5% and -11.42%"}, {"measurement": "Inhibition 3", "setting": "[6]; GABAA", "result": "1.02% and 0%"}, {"measurement": "Inhibition 4", "setting": "[6]; GABAA", "result": "29.11% and -5.47%"}, {"measurement": "Mean %", "setting": "[6]; H3", "result": 9.84, "unit": "%"}, {"measurement": "Inhibition 1", "setting": "[6]; H3", "result": 9.54, "unit": "%"}, {"measurement": "Inhibition 2", "setting": "[6]; H3", "result": 0.8, "unit": "%"}, {"measurement": "Inhibition 3", "setting": "[6]; H3", "result": 7.8, "unit": "%"}, {"measurement": "Inhibition 4", "setting": "[6]; H3", "result": 21.2, "unit": "%"}, {"measurement": "Mean %", "setting": "[6]; H4", "result": -7.26, "unit": "%"}, {"measurement": "Inhibition 1", "setting": "[6]; H4", "result": -26.58, "unit": "%"}, {"measurement": "Inhibition 2", "setting": "[6]; H4", "result": 0.78, "unit": "%"}, {"measurement": "Inhibition 3", "setting": "[6]; H4", "result": -5.94, "unit": "%"}, {"measurement": "Inhibition 4", "setting": "[6]; H4", "result": 2.7, "unit": "%"}, {"measurement": "Mean %", "setting": "[6]; Sigma 1", "result": 5.78, "unit": "%"}, {"measurement": "Mean %", "setting": "[6]; Sigma 2", "result": 26.55, "unit": "%"}]}
